Measured values: US10987319B2, “TFEB activator C1 ameliorates app and tau pathology and rescues cognitive deficits in neurodegenerative diseases” (Hong Kong Baptist University, priority 2018, dated 2021)

What was measured:
Type in all cases: in vivo
3×Tg mice [1] = assay: Open-field test
Procedure: Homozygous 3×Tg mice (APP KM670/671NL (Swedish), MAPT P301L, PSEN1 M146V) were produced in Hong Kong Baptist University animal house and maintained at 23±2° C. temperature, 60±15% relative humidity with free access to food and water ad libitum. Seven months old WT (129/SvJ, n=6 for male mice; n=10 for female mice) and 3×Tg mice (n=6 for male mice; n=10 for female mice) were treated daily with vehicle (1% CMC-Na; Sigma-Aldrich, C5678]), curcumin analogue C1 (2.5 mg/kg, 5 mg/kg, 10 mg/kg) or curcumin (50 mg/kg; Sigma-Aldrich, 08511) suspended in 1% CMC-Na by oral gavage for 7 months. 3×Tg mice were treated with the indicated compounds for 7 months and then the open-field test was performed to evaluate the exploratory behavior in novel environment. The experiment was conducted 30 min after last dosing time. Mice placed in the center of an empty open field (25 cm×25 cm) were allowed to explore the environment for 5 min without any external disturbance. Ethnovision XT software was used to measure the patterns of movement, time spent in the center and margin, velocity, distance traveled as indicators of agility and exploration.

3×Tg mice [2] = assay: Morris-water maze
Procedure: Homozygous 3×Tg mice (APP KM670/671NL (Swedish), MAPT P301L, PSEN1 M146V) were produced in Hong Kong Baptist University animal house and maintained at 23±2° C. temperature, 60±15% relative humidity with free access to food and water ad libitum. Seven months old WT (129/SvJ, n=6 for male mice; n=10 for female mice) and 3×Tg mice (n=6 for male mice; n=10 for female mice) were treated daily with vehicle (1% CMC-Na; Sigma-Aldrich, C5678]), curcumin analogue C1 (2.5 mg/kg, 5 mg/kg, 10 mg/kg) or curcumin (50 mg/kg; Sigma-Aldrich, 08511) suspended in 1% CMC-Na by oral gavage for 7 months. 3×Tg mice were treated with the indicated compounds for 7 months and Morris-water maze (MWM) was used to evaluate the spatial learning memory. MWM is a circular water (21±1° C.) container with 1 meter diameter. Animals were pre-quarantined and acclimatized to the experimenting room at least 1 week before the start of the experiment. The experiment was started with one day visual platform trial. Each mouse underwent 4 visible platform trails (each trial 60 seconds) with different platform placement, positioned above the water level. Hidden platform training was conducted after mixing a non-toxic paint in the water. Mice were trained for 6 continuous days, each day composed of different session with 4 hidden platform trials (each trial 60 seconds). Each session was designed with randomized animal introduction pattern into the water maze with unchanged platform position. Each trial was conducted with 30 min inter-trial interval and provided with external cues. To assess the long term spatial memory retrieval a probe trial (60 seconds) was conducted 24 h after the last training session. During probe trial water maze was divided into 4 quadrants. The hidden platform in the target quadrant was removed after determining its location. Ethnovision XT software was used to observe and record the swimming pattern. During hidden platform training sessions, time spent to find the platform was taken as a parameter to evaluate memory acquisition. In probe trial percentage of time spent in the target quadrant compared to the other 3 quadrants was calculated.

Aβ plaques [3] = assay: Immunohistochemistry of Aβ plaques (4G8 antibody), 3×Tg mice; settings: 10 mg/kg oral 7 months
Procedure: Homozygous 3×Tg mice (APP KM670/671NL (Swedish), MAPT P301L, PSEN1 M146V) were produced in Hong Kong Baptist University animal house and maintained at 23±2° C. temperature, 60±15% relative humidity with free access to food and water ad libitum.
Brain sections (30 μm) were cut on a microtome and stored at 4° C. in PBS+0.1% sodium azide. Sections were permeabilized for 10 min with cold PBS containing 0.5% Triton X-100 and blocked with 3% bovine serum albumin for 1 h at room temperature.

Aβ plaques [4] = assay: Immunohistochemistry of Aβ plaques (4G8 antibody), 5×FAD mice
Procedure: Male 5×FAD mice were purchased from Jackson laboratories (Stock number 006554) and maintained at 23±2° C. temperature, 60±15% relative humidity with free access to food and water ad libitum. 5×FAD male mice were inbred with wild-type (WT, C57/BL6) female mice to produce heterozygous offspring. Offspring were genotyped to select 5×FAD (APP KM670/671NL (Swedish), APP I716V (Florida), APP V717I (London), PSEN1 M146L (A>C), PSEN1 L286V) gene mutations mice. Two months old WT and 5×FAD mice (male and female, n=10-14 per group) were treated daily with vehicle (1% sodium carbonyl methylcellulose [CMC-Na; Sigma-Aldrich, C5678]), curcumin analogue C1 (5 mg/kg, 10 mg/kg) or curcumin (50 mg/kg; Sigma-Aldrich, 08511) suspended in 1% CMC-Na by oral gavage for 4 months.
Mice half brains were fixed with 4% paraformaldehyde in PBS overnight and dehydrated in 30% sucrose in PBS for at least 24 h. Brain sections (30 μm) were cut on a microtome and stored at 4° C. in PBS+0.1% sodium azide. Sections were permeabilized for 10 min with cold PBS containing 0.5% Triton X-100 and blocked with 3% bovine serum albumin for 1 h at room temperature. The sections were incubated with biotinylated 4G8 antibody (800701, Biolegend) overnight, and then incubated with Avidin-Biotin enzyme complex (Vecstatin-ELITE ABC-HRP kit) and Aβ plaques were visualized by DAB peroxidase and quantified using ImageJ software.

[5] = Pharmacokinetic study in mice, oral (brain and blood levels by LC/MS/MS); settings: male, mouse, C57BL/6 mice, oral 10 mg/kg, brain

## COc1ccccc1/C=C/C(=O)/C=C/c1ccccc1OC [Compound C1, 1,5-bis(2-methoxyphenyl)penta-1,4-dien-3-one]
3×Tg mice [1]; 3×Tg mice, 2.5, 5, 10 mg/kg oral 7 months
  time spent in the center vs vehicle: dose-dependently decreased
3×Tg mice [1]; 3×Tg mice, high dose 10 mg/kg oral 7 months, P<0.001
  exploratory behavior: almost recovered the exploratory behavior to the levels of WT mice
3×Tg mice [2]; 2.5 mg/kg oral 7 months
  percentage of time spent in the target quadrant, probe trial, vs vehicle: significantly increased
3×Tg mice [2]; 5 mg/kg oral 7 months
  percentage of time spent in the target quadrant, probe trial, vs vehicle: significantly increased
3×Tg mice [2]; 10 mg/kg oral 7 months
  distance traveled to find the hidden platform vs vehicle: significantly reduced
  percentage of time spent in the target quadrant, probe trial, vs vehicle: significantly increased
3×Tg mice [2]; C1 10 mg/kg vs curcumin 50 mg/kg
  target recognition compared with curcumin: much better improvement in target recognition than curcumin
Aβ plaques [3]
  hippocampal Aβ plaque load: reduces hippocampal Aβ plaque load
Aβ plaques [4]; high dosage 10 mg/kg oral 4 months
  Aβ plaque load in cortico-hippocampal sections: significant reduction
Aβ plaques [4]; low dosage 5 mg/kg oral 4 months
  Aβ plaque load in cortico-hippocampal sections: significant reduction
[5]
  Tmax: 30 min
[5]; read-out: maximum concentration (Cmax) in the brain
  Cmax: 1310 ± 89 ng/g
